Source: US5001064A, “Phosphatidylinositol 4-kinase” (Washington University, priority 1988, dated 1991)
“Also recorded” adds a separate entry of the source.

Legend:
Assay type in all cases: biochemical, bovine
PtdIns 4-kinase [1] = molecular target: T1, PtdIns 4-kinase (Bos taurus, UniProt A6QLN5); test: Effect of potential inhibitors on PtdIns 4-kinase activity; details: for effectiveness as inhibitor / Relative activity with potential inhibitor / relative activity at 1000 µM: PtdIns 0.1 mg/ml; for effectiveness as inhibitor: soluble compounds approximately 10-fold above the PtdIns concentration; for relative activity at 1000 µM: read-out: Relative activity with potential inhibitor, heading: Relative activity with potential inhibitor; for inhibition: approximately 5-fold molar excess over PtdIns (0.1 mg/ml)
T1 construct: It constitutes the major PtdIns 4-kinase activity of bovine uteri; from tissue; host or cells: bovine uterus (acetone powder, purified over ammonium sulfate, Mono Q, S-Sepharose, Mono Q, Mono P and hydroxylapatite)
Description: (§1) PtdIns 4-kinase activity was assayed in 60 μl at 30° C. in 20 mM BisTris-HCl (pH 7.0), 10 mM MgCl2, 1.0% Triton X-100, 0.25 mg/ml phosphatidylinositol, and 150 μM ATP (1.25 μCi[-^32 P]ATP), unless otherwise noted. The reaction was terminated by the addition of 12 μl of cold HCl, 120 μl of cold methanol, 150 μl of chloroform, and 40 μl of H2 O. The extracted samples were centrifuged at 12,000 × g for 1 min. and the aqueous layer removed and discarded. When needed, the organic phase was washed with 40 μl of cold methanol and 40 μl of cold 1.0 N HCl, centrifuged at 12,000 × g, and the aqueous layer was removed. The organic phase was then dried under vacuum in a Savant speed-vac, resuspended in 40 μl of chloroform/methanol (2:1), and chromatographed on potassium oxalate-impregnated Silica Gel 60 thin layer chromatography plates (TLC). The solvent system used consisted of chloroform/methanol/ammonium hydroxide/water (51:39.6:3:8.4). For two-dimensional thin layer chromatography, the preceding solvent system was used for the first dimension, and chloroform/methanol/acetic acid/water (50:39:1:10) was used for the second dimension. Standards were visualized by exposing the TLC plate to iodine vapor. The reaction product, phosphatidylinositol 4-phosphate, was visualized by autoradiography, and the corresponding area of the TLC plate was scraped and quantitated by Cherenkov counting. […] For tests utilizing [^3 H]PtdIns, the corresponding areas of the TLC plates were scraped and the silica powder was suspended in a gel of Aquasol/H2 O (4:1) before counting. All assays (except column fractions) were done in duplicate or triplicate.
Various PtdIns-related compounds were tested as possible inhibitors of this purified PtdIns 4-kinase. A concentration of PtdIns of 0.1 mg/ml was used in these tests to accentuate possible competitive inhibition by potential inhibitors (Table IV).

PtdIns 4-kinase [2] = molecular target: T1, PtdIns 4-kinase; test: Specificity of PtdIns 4-kinase for a lipid substrate; details: for Relative activity with lipid added: lipid 0.25 mg/ml, organic extractable label, background subtracted, PtdIns (soybean) = 100; for phosphorylation of lipid by the purified enzyme: standard assay buffer with the indicated lipid
Description: PtdIns 4-kinase activity was assayed in 60 μl at 30° C. in 20 mM BisTris-HCl (pH 7.0), 10 mM MgCl2, 1.0% Triton X-100, 0.25 mg/ml phosphatidylinositol, and 150 μM ATP (1.25 μCi[-^32 P]ATP), unless otherwise noted. The reaction was terminated by the addition of 12 μl of cold HCl, 120 μl of cold methanol, 150 μl of chloroform, and 40 μl of H2 O. The extracted samples were centrifuged at 12,000 × g for 1 min. and the aqueous layer removed and discarded. When needed, the organic phase was washed with 40 μl of cold methanol and 40 μl of cold 1.0 N HCl, centrifuged at 12,000 × g, and the aqueous layer was removed. The organic phase was then dried under vacuum in a Savant speed-vac, resuspended in 40 μl of chloroform/methanol (2:1), and chromatographed on potassium oxalate-impregnated Silica Gel 60 thin layer chromatography plates (TLC). The solvent system used consisted of chloroform/methanol/ammonium hydroxide/water (51:39.6:3:8.4). For two-dimensional thin layer chromatography, the preceding solvent system was used for the first dimension, and chloroform/methanol/acetic acid/water (50:39:1:10) was used for the second dimension. Standards were visualized by exposing the TLC plate to iodine vapor. The reaction product, phosphatidylinositol 4-phosphate, was visualized by autoradiography, and the corresponding area of the TLC plate was scraped and quantitated by Cherenkov counting. This assay was linear with respect to both protein concentration and time. For tests utilizing [^3 H]PtdIns, the corresponding areas of the TLC plates were scraped and the silica powder was suspended in a gel of Aquasol/H2 O (4:1) before counting. All assays (except column fractions) were done in duplicate or triplicate.
The specificity of PtdIns 4-kinase for lipid substrates was also examined using standard assay buffer containing […] of the indicated lipid. After extraction the organic phase was washed three times, dried in vacuo, and the organic extractable label was quantitated. Control reactions (no lipid) established background levels which were then subtracted from the experimentally derived values (Table III). […] The sensitivity of the above technique was limited and appeared to show little or no activity with lyso-PtdIns; however, subsequent TLC of these reactions established that the enzyme would phosphorylate lyso-PtdIns about 10% as well as soybean Ptdlns. […] Except for lyso-Ptdlns, the results presented in Table III were confirmed by thin layer chromatography.

PtdIns 4-kinase [3] = molecular target: T1, PtdIns 4-kinase; test: Specificity of PtdIns 4-kinase for a nucleotide phosphoryl donor ([3H]PtdIns as substrate); details: for utilization as phosphoryl donor (words): [3H]PtdIns as substrate; for activity at 150 µM: read-out: Relative activity with nucleotide donor
Description: as §1

[4] = nucleotide donor 150 μM, ATP = 100

T1 sequence (A6QLN5 1-479): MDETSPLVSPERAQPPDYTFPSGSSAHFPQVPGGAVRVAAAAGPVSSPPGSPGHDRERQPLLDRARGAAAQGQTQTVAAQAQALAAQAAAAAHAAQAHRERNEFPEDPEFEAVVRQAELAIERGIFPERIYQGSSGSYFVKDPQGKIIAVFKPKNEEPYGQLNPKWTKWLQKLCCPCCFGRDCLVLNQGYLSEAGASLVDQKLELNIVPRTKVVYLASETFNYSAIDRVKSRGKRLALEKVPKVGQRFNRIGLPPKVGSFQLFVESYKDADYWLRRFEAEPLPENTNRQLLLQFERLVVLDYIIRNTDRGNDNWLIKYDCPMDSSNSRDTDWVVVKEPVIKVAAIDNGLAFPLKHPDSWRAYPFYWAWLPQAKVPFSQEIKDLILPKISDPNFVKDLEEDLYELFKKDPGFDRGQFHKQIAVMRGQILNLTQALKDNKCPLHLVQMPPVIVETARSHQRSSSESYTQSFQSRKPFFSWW

## O=P(O)(O)OC1[C@H](O)[C@H](O)C(O)[C@H](O)[C@H]1O (stereo partly drawn) [Ins-1-P]
PtdIns 4-kinase [1]
  effectiveness as inhibitor: ineffective as inhibitors
PtdIns 4-kinase [1]; inhibitor 1.0 mM
  Relative activity with potential inhibitor: 89%

## L-α-phosphatidylcholine
PtdIns 4-kinase [2]
  Relative activity with lipid added: 0%
  phosphorylation of lipid by the purified enzyme: no phosphorylation

## galactocerebrosides (mixed)
PtdIns 4-kinase [2]
  Relative activity with lipid added: 0%
  phosphorylation of lipid by the purified enzyme: would not phosphorylate

## Nc1nc2c(ncn2[C@@H]2O[C@H](COP(=O)(O)OP(=O)(O)OP(=O)(O)O)[C@@H](O)[C@H]2O)c(=O)[nH]1 [GTP]
PtdIns 4-kinase [3]
  utilization as phosphoryl donor (words): No PtdIns-4-P was observed; also recorded: No PtdIns-4-P 5-kinase activity was present
PtdIns 4-kinase [3]; [4]
  activity at 150 µM: 5%

## O=P(O)(OCC(O)CO)O[C@@H]1[C@H](O)[C@H](O)[C@@H](O)[C@H](O)[C@H]1O (stereo partly drawn) [Glycerophospho-D-myo-inositol]
PtdIns 4-kinase [1]
  effectiveness as inhibitor: ineffective as inhibitors
PtdIns 4-kinase [1]; inhibitor 1.0 mM
  relative activity at 1000 µM: 86%

## glucocerebrosides
PtdIns 4-kinase [2]
  Relative activity with lipid added: 0%
  phosphorylation of lipid by the purified enzyme: would not phosphorylate

## O=c1ccn([C@@H]2O[C@H](COP(=O)(O)OP(=O)(O)OP(=O)(O)O)[C@@H](O)[C@H]2O)c(=O)[nH]1 [UTP]
PtdIns 4-kinase [3]
  utilization as phosphoryl donor (words): A small amount of PtdIns-4-P was observed
PtdIns 4-kinase [3]; [4]
  activity at 150 µM: 18%

## CCCCCCCCCCCCCCCC(=O)OC[C@H](COP(=O)(O)O[C@H]1[C@H](O)[C@@H](O)[C@H](OP(=O)(O)O)[C@@H](OP(=O)(O)O)[C@H]1O)OC(=O)CCCCCCCCCCCCCCC [PtdIns-4,5-P2, phosphatidylinositol 4,5-diphosphate]
PtdIns 4-kinase [2]
  Relative activity with lipid added: 0%
  phosphorylation of lipid by the purified enzyme: nor would it phosphorylate
PtdIns 4-kinase [1]
  effectiveness as inhibitor: Neither PtdIns-4-P or PtdIns-4,5-P2 were effective inhibitors
  inhibition: 59%
PtdIns 4-kinase [1]; inhibitor 0.02 mg/ml
  Relative activity with potential inhibitor: 109%
PtdIns 4-kinase [1]; inhibitor 0.10 mg/ml
  Relative activity with potential inhibitor: 101%
PtdIns 4-kinase [1]; inhibitor 0.50 mg/ml
  Relative activity with potential inhibitor: 41%

## O=c1[nH]cnc2c1ncn2[C@@H]1O[C@H](COP(=O)(O)OP(=O)(O)OP(=O)(O)O)[C@@H](O)[C@H]1O [ITP]
PtdIns 4-kinase [3]
  utilization as phosphoryl donor (words): No PtdIns-4-P was observed; also recorded: No PtdIns-4-P 5-kinase activity was present
PtdIns 4-kinase [3]; [4]
  activity at 150 µM: 11%

## CCCCC/C=C\C/C=C\C/C=C\C/C=C\CCCC(=O)O[C@@H](CO)COC(=O)CCCCCCCCCCCCCCCCC [1-Stearoyl-2-arachidonoyl-sn-glycerol]
PtdIns 4-kinase [2]
  Relative activity with lipid added: 0%
  phosphorylation of lipid by the purified enzyme: lacked diacylglycerol kinase activity

## O=P(O)(O)O[C@H]1[C@H](O)[C@@H](O)[C@H](OP(=O)(O)O)[C@@H](O)[C@H]1O [Ins-1,4-P2]
PtdIns 4-kinase [1]
  effectiveness as inhibitor: ineffective as inhibitors
PtdIns 4-kinase [1]; inhibitor 1.0 mM
  Relative activity with potential inhibitor: 98%

## Nc1ncnc2c1ncn2[C@@H]1O[C@H](COP(=O)(O)OP(=O)(O)O)[C@@H](O)[C@H]1O [ADP]
PtdIns 4-kinase [3]
  utilization as phosphoryl donor (words): No PtdIns-4-P was observed; also recorded: No PtdIns-4-P 5-kinase activity was present
PtdIns 4-kinase [3]; [4]
  activity at 150 µM: 12%

## phosphatidylinositol 4-phosphate [PtdIns-4-P]
PtdIns 4-kinase [2]
  Relative activity with lipid added: 0%
  phosphorylation of lipid by the purified enzyme: lacked detectable PtdIns-4-P 5-kinase activity
PtdIns 4-kinase [1]
  effectiveness as inhibitor: Neither PtdIns-4-P or PtdIns-4,5-P2 were effective inhibitors
  inhibition: 42%
PtdIns 4-kinase [1]; inhibitor 0.02 mg/ml
  Relative activity with potential inhibitor: 99%
PtdIns 4-kinase [1]; inhibitor 0.10 mg/ml
  Relative activity with potential inhibitor: 105%
PtdIns 4-kinase [1]; inhibitor 0.50 mg/ml
  Relative activity with potential inhibitor: 58%

## Phosphatidylinositol [PtdIns (bovine)]
PtdIns 4-kinase [2]
  Relative activity with lipid added: 110%
  phosphorylation of lipid by the purified enzyme: able to phosphorylate

## L-α-phosphatidylethanolamine
PtdIns 4-kinase [2]
  Relative activity with lipid added: 0%
  phosphorylation of lipid by the purified enzyme: no phosphorylation

## Phosphatidylinositol [PtdIns (soybean)]
PtdIns 4-kinase [2]
  Relative activity with lipid added: 100%
  phosphorylation of lipid by the purified enzyme: able to phosphorylate

## Cc1cn([C@H]2C[C@H](O)[C@@H](COP(=O)(O)OP(=O)(O)OP(=O)(O)O)O2)c(=O)[nH]c1=O [TTP]
PtdIns 4-kinase [3]; [4]
  Relative activity with nucleotide donor: 3

## L-α-lysophosphatidylinositol [Lyso-PtdIns]
PtdIns 4-kinase [2]; TLC of the reactions
  phosphorylation relative to soybean PtdIns, by subsequent TLC: about 10%
PtdIns 4-kinase [2]
  Relative activity with lipid added: 0%

## Nc1ncnc2c1ncn2[C@H]1C[C@H](O)[C@@H](COP(=O)(O)OP(=O)(O)OP(=O)(O)O)O1 [dATP, 2'-deoxy-ATP]
PtdIns 4-kinase [3]; listed as 2'-deoxy-ATP
  utilization as phosphoryl donor (words): utilized
PtdIns 4-kinase [3]; listed as 2-deoxy-ATP
  utilization as phosphoryl donor (words): utilized; also recorded: will utilize
PtdIns 4-kinase [3]; [4]
  activity at 150 µM: 104%

## OC1C(O)C(O)C2(CO2)C(O)C1O (stereo not drawn) [Inositol 2,2'-anhydro-2-C-hydroxymethyl]
PtdIns 4-kinase [1]
  effectiveness as inhibitor: ineffective as inhibitors
PtdIns 4-kinase [1]; inhibitor 1.0 mM
  relative activity at 1000 µM: 118%

## Nc1ncnc2c1ncn2[C@H]1CC[C@@H](COP(=O)(O)OP(=O)(O)OP(=O)(O)O)O1 [ddATP, 2,3-Dideoxy-ATP]
PtdIns 4-kinase [3]; listed as 2,3-Dideoxy-ATP
  utilization as phosphoryl donor (words): partially effective
PtdIns 4-kinase [3]; listed as 2,3-dideoxy-ATP
  utilization as phosphoryl donor (words): to a lesser degree will utilize
PtdIns 4-kinase [3]; [4]
  activity at 150 µM: 39%

## L-α-phosphatidyl-L-serine [Phosphatidylserine]
PtdIns 4-kinase [2]
  Relative activity with lipid added: 1%
  phosphorylation of lipid by the purified enzyme: no phosphorylation

## Nc1ccn([C@@H]2O[C@H](COP(=O)(O)OP(=O)(O)OP(=O)(O)O)[C@@H](O)[C@H]2O)c(=O)n1 [CTP]
PtdIns 4-kinase [3]
  utilization as phosphoryl donor (words): No PtdIns-4-P was observed; also recorded: No PtdIns-4-P 5-kinase activity was present
PtdIns 4-kinase [3]; [4]
  activity at 150 µM: 10%
